From patent US7935682B2, “Wound healing dressing for enhancing fibrocyte formation” (William Marsh Rice University, priority 2002, dated 2011) come the findings set out here.

This assay relates to monocyte to fibrocyte differentiation (PBMC). The experiment in a line: Fibrocyte differentiation assay: PBMC cultured in serum-free medium, fibrocytes enumerated by morphology. The assay is classed as cell-based, human. The following applies: for number of fibrocytes in culture: concentrations between 10 and 0.1 ng/ml; for number of fibrocytes in culture / ability to inhibit fibrocyte differentiation: PBMC in serum-free medium; for ability to inhibit fibrocyte differentiation: commercially available purified proteins, 6 days. The procedure:
The rapid appearance of these cells, within 3 days of culture, was inhibited by human serum or plasma. To examine this process in more detail, PBMC were cultured at 5×10^5 cells per ml in serum-free medium containing increasing concentrations of human plasma for 6 days. […] The activity in the serum that inhibited fibrocyte formation was retained by a 30 kDa cutoff spin-filter (data not shown).
Plasma was fractionated by BaCl2 precipitation, heparin and ion exchange chromatography. Protein concentrations were assessed by spectrophotometry at 280 nm. Inhibition of fibrocyte differentiation was assessed by morphology. The fibrocyte inhibitory activity of a sample was defined as the reciprocal of the dilution at which it inhibited fibrocyte differentiation by 50%, when added to serum-free medium.
Serum amyloid P is a constitutive plasma protein and is closely related to CRP, the major acute phase protein in humans. […] Serum and plasma contain between 30-50 μg/ml SAP.
Cells were incubated in serum-free medium: RPMI (GibcoBRL Life, Invitrogen, Carlsbad, Calif., USA) supplemented with 10 mM HEPES (GibcoBRL/Life), 2 mM glutamine, 100 U/ml penicillin and 100 μg/ml streptomycin, 0.2% bovine serum albumin (BSA, Sigma), 5 μg/ml insulin (Sigma), 5 μg/ml iron-saturated transferrin (Sigma) and 5 ng/ml sodium selenite (Sigma). Normal human serum (Sigma), normal human plasma (Gulf Coast Regional Blood Center) or fetal calf serum (Sigma), column fractions, sera and synovial fluid from patients or purified proteins were added at the stated concentrations. Patient samples were obtained from a repository available to researchers at University of Texas Medical School at Houston. This repository keeps patient information confidential, and meets all NIH guidelines.
PBMC were cultured in 24 or 96 well tissue culture plates in 2 ml or 200 μl volumes respectively (Becton Dickinson, Franklin Lakes, N.J.) at 2.5×10^5 cells per ml in a humidified incubator containing 5% CO2 at 37° C. for the indicated times. Fibrocytes in 5 different 900 μm diameter fields of view were enumerated by morphology in viable cultures as adherent cells with an elongated spindle-shaped morphology as distinct from small lymphocytes or adherent monocytes. Alternatively cells were air dried, fixed in methanol and stained with haematoxylin and eosin (Hema 3 Stain, VWR, Houston, Tex.). Fibrocytes were counted using the above criterion and the presence of an oval nucleus. Enumeration of fibrocytes was performed on cells cultured for 6 days in flat-bottomed 96 well plates, with 2.5×10^4 cells per well. In addition, fibrocyte identity was confirmed by immunoperoxidase staining (see below). The fibrocyte inhibitory activity of a sample was defined as the reciprocal of the dilution at which it inhibited fibrocyte differentiation by 50%, when added to serum-free medium.
Experiments have shown that IL-4 and IL-13 are capable of promoting fibrocyte differentiation in vitro. Specifically, PBMC were cultured in serum-free medium in the presence of IL-4 or IL-13. […] Therefore a bandage or other topical agarose formulation as described above additionally containing IL-4 and/or IL-13 is expected to show further improvements in wound healing.

For “IL-13: cytokine, activator of the fibrotic response”, the “number of fibrocytes in culture” value is “enhanced the number of fibrocytes”.

“SAP: commercially available purified human serum amyloid P (Calbiochem), a pentraxin plasma protein”: the “ability to inhibit fibrocyte differentiation” value is “able to inhibit fibrocyte differentiation”. Moreover, the “activity from dilution curve” value (commercially available SAP) is listed as “approximately 6.6×10^3 units/mg”. The “concentration of maximal inhibitory activity” value (commercially available purified SAP) was 1 µg/mL. Besides, for the setting “worked out from 0.5% plasma and 30-50 μg/ml SAP”, the “SAP concentration at the plasma dilution at which fibrocytes began to appear, comparable to the threshold concentration of purified SAP” value was in the range of 0.15 to 0.25 µg/mL.

B1: Protein S: purified human protein S, vitamin K-dependent anticoagulant (Calbiochem) (protein, UniProt P07225 42-676, looked up)
Vitamin K-dependent protein S: ANSLLEETKQGNLERECIEELCNKEEAREVFENDPETDYFYPKYLVCLRSFQTGLFTAARQSTNAYPDLRSCVNAIPDQCSPLPCNEDGYMSCKDGKASFTCTCKPGWQGEKCEFDINECKDPSNINGGCSQICDNTPGSYHCSCKNGFVMLSNKKDCKDVDECSLKPSICGTAVCKNIPGDFECECPEGYRYNLKSKSCEDIDECSENMCAQLCVNYPGGYTCYCDGKKGFKLAQDQKSCEVVSVCLPLNLDTKYELLYLAEQFAGVVLYLKFRLPEISRFSAEFDFRTYDSEGVILYAESIDHSAWLLIALRGGKIEVQLKNEHTSKITTGGDVINNGLWNMVSVEELEHSISIKIAKEAVMDINKPGPLFKPENGLLETKVYFAGFPRKVESELIKPINPRLDGCIRSWNLMKQGASGIKEIIQEKQNKHCLVTVEKGSYYPGSGIAQFHIDYNNVSSAEGWHVNVTLNIRPSTGTGVMLALVSGNNTVPFAVSLVDSTSEKSQDILLSVENTVIYRIQALSLCSDQQSHLEFRVNRNNLELSTPLKIETISHEDLQRQLAVLDKAMKAKVATYLGGLPDVPFSATPVNAFYNGCMEVNINGVQLDLDEAISKHNDIRAHSCPSVWKKTKNS
Consider B1, for which the “ability to inhibit fibrocyte differentiation” value is “only SAP was able to inhibit fibrocyte differentiation”.

B2: CRP: purified human C-reactive protein (Calbiochem) (protein, UniProt P02741 19-224, looked up)
C-reactive protein: QTDMSRKAFVFPKESDTSYVSLKAPLTKPLKAFTVCLHFYTELSSTRGYSIFSYATKRQDNEILIFWSKDIGYSFTVGGSEILFEVPEVTVAPVHICTSWESASGIVEFWVDGKPRVRKSLKKGYTVGAEASIILGQEQDSFGGNFEGSQSLVGDIGNVNMWDFVLSPDEINTIYLGGPFSPNVLNWRALKYEVQGEVFTKPQLWP
In the case of B2, the “ability to inhibit fibrocyte differentiation” value is given as “only SAP was able to inhibit fibrocyte differentiation”.

B3: IL-4: cytokine, activator of the fibrotic response (protein, UniProt P05112 25-153, looked up)
Interleukin-4: HKCDITLQEIIKTLNSLTEQKTLCTELTVTDIFAASKNTTEKETFCRAATVLRQFYSHHEKDTRCLGATAQQFHRHKQLIRFLKRLDRNLWGLAGLNSCPVKEANQSTLENFLERLKTIMREKYSKCSS
In the case of B3, the “number of fibrocytes in culture” value was “enhanced the number of fibrocytes”.
